Data reported in patent US11198696B2, “Substituted xanthines as inhibitors of transient receptor potential cation channel subfamily c, member 5 activity” (Boehringer Ingelheim International GmbH, priority 2018, dated 2021).

Target: T1, TRPC5 (Homo sapiens, UniProt Q9UL62)
T1 construct: expressed in transfected cells; host or cells: HEK293 TREx cells, inducible TRPC5 expression, induced 20-48 hours
T1 sequence (Q9UL62 1-973): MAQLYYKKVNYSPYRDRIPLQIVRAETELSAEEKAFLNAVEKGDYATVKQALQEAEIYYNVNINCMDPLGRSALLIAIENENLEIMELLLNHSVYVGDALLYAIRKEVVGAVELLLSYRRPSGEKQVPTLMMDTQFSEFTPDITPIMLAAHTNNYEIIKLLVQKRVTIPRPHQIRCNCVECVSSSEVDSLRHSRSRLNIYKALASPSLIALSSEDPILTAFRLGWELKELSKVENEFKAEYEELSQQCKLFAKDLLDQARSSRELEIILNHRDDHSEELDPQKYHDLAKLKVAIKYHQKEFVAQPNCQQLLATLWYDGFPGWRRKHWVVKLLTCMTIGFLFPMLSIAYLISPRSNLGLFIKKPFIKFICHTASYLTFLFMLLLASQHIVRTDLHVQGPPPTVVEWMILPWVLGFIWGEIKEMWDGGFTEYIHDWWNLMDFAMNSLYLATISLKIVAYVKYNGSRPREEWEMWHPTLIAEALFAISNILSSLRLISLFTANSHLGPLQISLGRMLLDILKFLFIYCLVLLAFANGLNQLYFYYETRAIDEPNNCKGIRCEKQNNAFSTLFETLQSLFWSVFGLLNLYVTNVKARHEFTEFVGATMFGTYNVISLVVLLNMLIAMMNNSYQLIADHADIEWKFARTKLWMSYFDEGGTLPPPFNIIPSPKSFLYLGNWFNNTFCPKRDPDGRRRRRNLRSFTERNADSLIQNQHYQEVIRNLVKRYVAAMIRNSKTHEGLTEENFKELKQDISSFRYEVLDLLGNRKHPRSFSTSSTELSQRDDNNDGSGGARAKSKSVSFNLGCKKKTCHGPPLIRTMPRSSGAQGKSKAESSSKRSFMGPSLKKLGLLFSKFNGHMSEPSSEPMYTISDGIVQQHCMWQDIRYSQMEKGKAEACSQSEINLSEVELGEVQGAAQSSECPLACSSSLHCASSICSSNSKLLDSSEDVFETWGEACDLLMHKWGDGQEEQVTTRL
Assay: Assay A: Determination of TRPC5-Inhibition (whole-cell patch clamp)
Assay type: cell-based
Conditions: compounds of the present invention, TRPC5-expressing HEK293 TREx cells, LaCl3-activated current
Excerpt: Assay A: Determination of TRPC5-Inhibition
Patch clamp experiments permit the detection of currents through the TRPC5 channel in a cell line. In normal whole-cell patch clamp recordings, a glass electrode is brought into contact with a single cell and a high-resistance (gigaohm) seal is established with the cell membrane. The membrane is then ruptured to achieve the whole-cell configuration, permitting control of the voltage of the cell membrane and measurement of currents flowing across the membrane using the amplifier attached to the electrode and resulting in the replacement of cytoplasm with the pipette solution. A perfusion system permits control of the extracellular solution, including the addition of blockers and activators of the current. The current can be activated by including 1.4 μM free Ca2+ in the pipette (intracellular) solution, and 80 μM LaCl3 in the extracellular solution.
TRPC5 cells were induced 20-48 hours, removed from growth plates, and replated at low density (to attain good single-cell physical separation) on glass coverslips for measurement. In some cases, cells were grown in low density overnight on glass coverslips. Patch clamp recordings were made in the whole-cell mode with a holding potential of −40 mV. Every 5 seconds, a voltage ramp was applied from −120 to +100 mV, 400 ms in duration. Currents elicited were quantified at −80 mV and +80 mV. The internal solution consisted of 140 mM cesium aspartate, 10 mM HEDTA, 2 mM CaCl2, 2.27 mM MgCl2 and 10 mM HEPES, pH 7.2, with 1,400 nM calculated free Ca2+. The external solution consisted of 150 mM NaCl, 4.5 mM 15 KCl, 1 mM MgCl2, 2 mM CaCl2, 10 mM HEPES, 10 mM glucose, 1 mM EGTA, pH 7.4. Upon addition of LaCl3, TRPC5 current was induced only in TRPC5-expressing cells and not in parental HEK293 TREx cells. Removal of the LaCh stimulus causes most of the current to go away. Potential blockers were tested for ability to block both inward and outward currents in the continued presence of LaCl3.
IC50 of a compound of the invention was estimated by testing the compound 500 nM. […] Compounds blocking 50% or more at 500 nM are retested at multiple concentrations, and the % block is fitted by standard equations to determine IC50 accurately, using a 5/6 point concentration-response experiment.

Row | SMILES | IC50 [nM]
1 | CCn1c(=O)n(CCCO)c(=O)c2c1nc(-c1ccc(OC3CCC3C)nc1)n2Cc1ccccc1 (centres unmarked) [Example 63] | 3.15
2 | CCn1c(=O)n(CCCO)c(=O)c2c1nc(-c1ccc(OC3CCC(C(F)(F)F)CC3)nc1C)n2Cc1ccc(F)cc1 (centres unmarked) [Example 35] | 0.531
3 | CCn1c(=O)n(CCCO)c(=O)c2c1nc(-c1ccc(OC3CCCCC3)nc1C)n2Cc1ccc(F)cc1 [Example 29] | 0.403
4 | CCn1c(=O)n(CCCO)c(=O)c2c1nc(-c1cc(F)c(OC3CCC3)nc1C)n2Cc1ccc(F)cc1 [Example 13] | 0.174
5 | Cc1nc(OC2CC(C)C2)ccc1-c1nc2c(c(=O)n(CCCO)c(=O)n2C(C)C)n1Cc1ccccc1 (centres unmarked) [Example 26] | < 0.32
6 | CCn1c(=O)n(CCCO)c(=O)c2c1nc(-c1ccc(OC3CC(C)C3)nc1C)n2Cc1ccc(Cl)cc1 (centres unmarked) [Example 17] | 0.199
7 | CCn1c(=O)n(CCCO)c(=O)c2c1nc(-c1ccc(OC3CCC3)nc1)n2Cc1ccc(Cl)cc1F [Example 53] | 1.59
8 | CCn1c(=O)n(CCCO)c(=O)c2c1nc(-c1ccc(OC3CC(C)C3)nc1C)n2Cc1ccc(F)cc1 (centres unmarked) [Example 18] | 0.207
9 | CCn1c(=O)n(CCCO)c(=O)c2c1nc(-c1ccc(O[C@H]3CCC[C@@H]3C)nc1C)n2Cc1ccc(Cl)cc1 (racemic) [Example 21] | 0.249
10 | CCn1c(=O)n(CCCO)c(=O)c2c1nc(-c1ccc(OC3CCC3)nc1C)n2Cc1ccccc1 [Example 52] | 1.58
11 | Cc1nc(OC2CC=CC2)ccc1-c1nc2c(c(=O)n(CCCO)c(=O)n2C(C)C)n1Cc1ccccc1 [Example 22] | 0.265
12 | CCn1c(=O)n(CCCO)c(=O)c2c1nc(-c1ccc(OC3CCC3)nc1)n2Cc1ccc(F)cc1 [Example 64] | 2.71
13 | CCn1c(=O)n(CCCO)c(=O)c2c1nc(-c1ccc(OC3CCC3)nc1C)n2Cc1ccc(Cl)cc1 [Example 36] | 0.551
14 | CCn1c(=O)n(CCCO)c(=O)c2c1nc(-c1ccc(OC3CCC3)nc1C)n2Cc1ccc(F)cc1 [Example 50] | 1.16
15 | CCn1c(=O)n(CCCO)c(=O)c2c1nc(-c1ccc(OC3CC(F)(F)C3)nc1C)n2Cc1ccc(F)cc1 [Example 47] | 0.859
16 | CCn1c(=O)n(CCCO)c(=O)c2c1nc(-c1ccc(OC3CCC3(C)C)nc1C)n2Cc1ccccc1 (centres unmarked) [Example 31] | 0.431
17 | Cc1nc(OC2CCCC2)ccc1-c1nc2c(c(=O)n(CCCO)c(=O)n2C(C)C)n1Cc1ccccc1 [Example 9] | 0.13
18 | CCn1c(=O)n(CCCO)c(=O)c2c1nc(-c1ccc(OC3CCC3)nc1)n2Cc1ccc(SC(F)(F)F)cc1 [Example 46] | 0.812
19 | C#Cc1ccc(Cn2c(-c3ccc(OC4CCC4)nc3)nc3c2c(=O)n(CCCO)c(=O)n3CC)cc1 [Example 57] | 2.66
20 | CCn1c(=O)n(CCCO)c(=O)c2c1nc(-c1ccc(OC3CC=CC3)nc1C)n2Cc1ccc(F)cc1 [Example 45] | 0.75
21 | Cc1nc(OC2CCC23CCC3)ccc1-c1nc2c(c(=O)n(CCCO)c(=O)n2C(C)C)n1Cc1ccccc1 (centres unmarked) [Example 6] | < 0.1
22 | CCn1c(=O)n(CCCO)c(=O)c2c1nc(-c1ccc(OC3CCC3C)nc1C)n2Cc1ccc(F)cc1 (centres unmarked) [Example 41] | 0.688
23 | CCn1c(=O)n(CCCO)c(=O)c2c1nc(-c1ccc(O[C@H]3C[C@@H](C)C3)nc1C)n2Cc1ccccc1 [Example 27] | 0.402
24 | CCn1c(=O)n(CCCO)c(=O)c2c1nc(-c1ccc(OC3CC4CCC3C4)nc1C)n2Cc1ccc(F)cc1 (centres unmarked) [Example 7] | 0.104
25 | CCn1c(=O)n(CCCO)c(=O)c2c1nc(-c1ccc(OC3CCC3C)nc1C(F)(F)F)n2Cc1ccc(F)cc1 (centres unmarked) [Example 15] | 0.184
26 | CCn1c(=O)n(CCCO)c(=O)c2c1nc(-c1ccc(OC3CCC3C)nc1C(F)(F)F)n2Cc1ccccc1 (centres unmarked) [Example 12] | 0.171
27 | CCn1c(=O)n(CCCO)c(=O)c2c1nc(-c1ccc(OC3CCCC3)nc1C)n2Cc1ccc(F)cc1 [Example 44] | 0.743
28 | CCn1c(=O)n(CCCO)c(=O)c2c1nc(-c1ccc(OC3CCC3)nc1)n2Cc1ccc(Br)cc1 [Example 38] | 0.613
29 | CCn1c(=O)n(CCCO)c(=O)c2c1nc(-c1ccc(OC3CCC3)nc1)n2Cc1ccc(Cl)cc1 [Example 48] | 0.873
30 | CCn1c(=O)n(CCCO)c(=O)c2c1nc(-c1ccc(OC3CCC3)nc1)n2Cc1ccc(C)cc1 [Example 55] | 2.16

Continued, values first:

Row | IC50 [nM] | SMILES
31 | 0.099 | CCn1c(=O)n(CCCO)c(=O)c2c1nc(-c1ccc(OC3CCC3C)nc1C)n2Cc1ccc(Cl)cc1 (centres unmarked) [Example 3]
32 | 1.01 | CCn1c(=O)n(CCCO)c(=O)c2c1nc(-c1ccc(OC3CCC3)nc1)n2Cc1ccc(C2CC2)cc1 [Example 49]
33 | 0.603 | CCC(C)n1c(=O)n(CCCO)c(=O)c2c1nc(-c1ccc(OC3CCCC3)nc1C)n2Cc1ccccc1 (centres unmarked) [Example 37]
34 | 0.163 | CCn1c(=O)n(CCCO)c(=O)c2c1nc(-c1ccc(OC3CCC3(C)C)nc1C)n2Cc1ccc(F)cc1 (centres unmarked) [Example 11]
35 | 0.236 | Cc1nc(OC2CCC2C)ccc1-c1nc2c(c(=O)n(CCCO)c(=O)n2C(C)C)n1Cc1ccccc1 (centres unmarked) [Example 19]
36 | 0.426 | Cc1nc(OC2CCC2)ccc1-c1nc2c(c(=O)n(CCCO)c(=O)n2C(C)C)n1Cc1ccccc1 [Example 30]
37 | 0.46 | CCn1c(=O)n(CCCO)c(=O)c2c1nc(-c1ccc(OC3CC(C)(C)C3)nc1C)n2Cc1ccccc1 [Example 32]
38 | 0.643 | CCn1c(=O)n(CCCO)c(=O)c2c1nc(-c1ccc(OC3CCC3C)nc1)n2Cc1ccc(Cl)cc1 (centres unmarked) [Example 40]
39 | 0.732 | Cc1nc(OC2CC(F)(F)C2)ccc1-c1nc2c(c(=O)n(CCCO)c(=O)n2C(C)C)n1Cc1ccccc1 [Example 43]
40 | 2.09 | CCn1c(=O)n(CCCO)c(=O)c2c1nc(-c1ccc(OC3CCC3C)nc1C)n2Cc1ccccc1 (centres unmarked) [Example 60]
41 | < 0.032 | Cc1nc(OC2CCC2C)ccc1-c1nc2c(c(=O)n(CCCO)c(=O)n2C(C)C)n1Cc1ccc(F)cc1 (centres unmarked) [Example 1]
42 | 0.178 | CCn1c(=O)n(CCCO)c(=O)c2c1nc(-c1ccc(OC3CCC3C)nc1C)n2Cc1ccc(Br)cc1 (centres unmarked) [Example 14]
43 | 0.477 | Cc1nc(OC2CCC2)ccc1-c1nc2c(c(=O)n(CCCO)c(=O)n2C(C)C)n1Cc1ccc(F)cc1 [Example 33]
44 | 0.095 | Cc1nc(OC2CCCCC2)ccc1-c1nc2c(c(=O)n(CCCO)c(=O)n2C(C)C)n1Cc1ccccc1 [Example 2]
45 | 1.36 | CCn1c(=O)n(CCCO)c(=O)c2c1nc(-c1ccc(OC3CCC3C)nc1)n2Cc1ccc(F)cc1 (centres unmarked) [Example 51]
46 | 2.43 | CCn1c(=O)n(CCCO)c(=O)c2c1nc(-c1ccc(OC3CCCC3)nc1C)n2Cc1ccccc1 [Example 61]
47 | 0.628 | CCn1c(=O)n(CCCO)c(=O)c2c1nc(-c1cc(F)c(OC3CCC3)nc1C)n2Cc1ccccc1 [Example 39]
48 | 0.312 | Cc1nc(OC2CC(F)(F)C2)ccc1-c1nc2c(c(=O)n(CCCO)c(=O)n2C(C)C)n1Cc1ccc(F)cc1 [Example 25]
49 | 0.15 | CCn1c(=O)n(CCCO)c(=O)c2c1nc(-c1ccc(OC3CCC3C)nc1C(F)(F)F)n2Cc1ccc(Cl)cc1 (centres unmarked) [Example 10]
50 | 0.275 | CCn1c(=O)n(CCCO)c(=O)c2c1nc(-c1ccc(OC3CCCC3)nc1C)n2Cc1ccc(Cl)cc1 [Example 23]
